Source: paper PMC7719768, “Glycogen Phosphorylase: A Drug Target of Amino Alcohols in Echinococcus granulosus, Predicted by a Computer-Aided Method” (Frontiers in Microbiology, 2020)

Experiments:
[1] = target: T1, Rabbit muscle Gp (recombinant rabbit Gp) (Oryctolagus cuniculus, UniProt P00489); test: glycogen degradation coupled to phosphoglucomutase and glucose-6-phosphate dehydrogenase, NADPH at […] nm; format: biochemical; details: read-out: IC50/LC50 (μM) / Gp / Rabbit muscle
T1 construct: gene PYGM; called recombinant rabbit Gp in the methods
T1 sequence (P00489 2-843): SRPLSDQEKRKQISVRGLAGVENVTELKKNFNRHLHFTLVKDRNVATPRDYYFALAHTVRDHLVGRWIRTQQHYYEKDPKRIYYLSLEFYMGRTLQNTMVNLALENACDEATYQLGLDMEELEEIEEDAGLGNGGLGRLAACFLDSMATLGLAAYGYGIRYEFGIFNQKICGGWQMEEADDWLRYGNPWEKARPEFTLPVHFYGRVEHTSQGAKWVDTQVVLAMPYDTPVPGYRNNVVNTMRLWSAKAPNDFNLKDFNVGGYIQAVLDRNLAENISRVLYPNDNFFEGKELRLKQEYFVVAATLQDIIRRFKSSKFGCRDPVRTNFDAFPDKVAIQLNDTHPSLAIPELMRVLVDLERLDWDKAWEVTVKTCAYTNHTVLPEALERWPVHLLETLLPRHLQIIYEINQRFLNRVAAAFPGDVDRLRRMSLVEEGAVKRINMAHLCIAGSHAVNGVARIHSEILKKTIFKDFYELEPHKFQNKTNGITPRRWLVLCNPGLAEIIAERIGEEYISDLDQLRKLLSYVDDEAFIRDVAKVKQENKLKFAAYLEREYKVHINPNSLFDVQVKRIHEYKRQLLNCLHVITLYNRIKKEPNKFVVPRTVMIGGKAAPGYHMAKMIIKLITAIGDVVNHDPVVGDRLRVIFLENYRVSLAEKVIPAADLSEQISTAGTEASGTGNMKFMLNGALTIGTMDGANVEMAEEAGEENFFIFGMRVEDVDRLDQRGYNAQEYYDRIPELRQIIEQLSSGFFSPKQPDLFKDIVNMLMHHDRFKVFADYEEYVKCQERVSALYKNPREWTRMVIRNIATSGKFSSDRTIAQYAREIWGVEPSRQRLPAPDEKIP

[2] = target: T2, E. granulosus PSC Gp (EgGps: EgGp1 and EgGp2); test: as above; format: biochemical, Echinococcus granulosus; details: protoscolex homogenate; 2 mg/ml glycogen, 1 mM AMP, 5 mM MgCl2, Tris-HCl, 25 °C; 2 min pre-incubation; read-out: IC50/LC50 (μM) / Gp / E. granulosus PSC
T2 construct: native enzyme in protoscolex homogenate, not purified; band at 96 kD; MN562583 = EgGp1, MN562584 = EgGp2; EgrG_000501500.1 is printed for Gp without saying which gene

OC(c1cc(C(F)(F)F)nc2c(C(F)(F)F)cccc12)C1CCCCN1 (stereo not shown) [MEF, mefloquine]
IC50 [1]: > 438 µM
IC50 [2]: 128 µM

C[C@H]1[C@H](C)CC[C@]2(C(=O)O)CC[C@]3(C)C(=CC[C@@H]4[C@@]5(C)CC[C@H](O)C(C)(C)[C@@H]5CC[C@]43C)[C@H]12 [UA, ursolic acid]
IC50 [1]: 5.47 µM
IC50 [2]: > 438 µM
